Earlier results as cited in patent US6326360A, “Bubbling enteric coated preparations” (Grelan Pharmaceuticals Co., Ltd., priority 1998, dated 2001).

Conditions: oral tablets

For CC1(C)[C@@H](O[C@H]2O[C@H](C(=O)O)[C@@H](O)[C@H](O)[C@H]2O[C@@H]2O[C@H](C(=O)O)[C@@H](O)[C@H](O)[C@H]2O)CC[C@]2(C)[C@H]3C(=O)C=C4[C@@H]5C[C@@](C)(C(=O)O)CC[C@]5(C)CC[C@@]4(C)[C@]3(C)CC[C@@H]12 [glycyrrhizin], the “decomposition of glycyrrhizin in the stomach (in words)” value is listed as “quickly decomposed into glycyrrhetinic acid in the stomach” and the “transfer of unchanged glycyrrhizin into blood (in words)” value is listed as “hardly observed”.
